Where two headings read alike, the source gives them in different places. One block for each molecule: values may come before it.
Experiments:
Water solubility = format: physicochemical
[1] = CellTiter-Glo cytotoxicity in MonoMac-6 cells; format: cell-based, human; details: human, MonoMac-6 cells; 24-h incubation, up to 50 μM; read-out: MonoMac-6 Cell Cytotoxicity IC50
Protocol: (§1) All cells were cultured at 37 °C in a humidified atmosphere containing 5% CO2. THP1-Blue cells obtained from InvivoGen (San Diego, CA, USA) were cultured in RPMI 1640 medium (Mediatech Inc., Herndon, VA, USA) supplemented with 10% (v/v) fetal bovine serum (FBS), 100 μg/mL streptomycin, 100 U/mL penicillin, 100 μg/mL phleomycin (Zeocin), and 10 μg/mL blasticidin S. Human monocyte-macrophage MonoMac-6 cells (Deutsche Sammlung von Mikroorganismen und Zellkulturen GmbH, Braunschweig, Germany) were grown in RPMI 1640 medium supplemented with 10% (v/v) FBS, 10 μg/mL bovine insulin, 100 μg/mL streptomycin, and 100 U/mL penicillin.
(§2) Cytotoxicity was analyzed with a CellTiter-Glo Luminescent Cell Viability Assay Kit from Promega (Madison, WI, USA), according to the manufacturer’s protocol. Cells were treated with compounds under investigation and incubated for 24 h. After treatment, the cells were equilibrated to room temperature for 30 min, substrate was added, and the samples were analyzed with a Fluoroscan Ascent FL (Thermo Fisher Scientific, Waltham, MA, USA). The IC50 values were calculated by plotting percentage inhibition against the logarithm of inhibitor concentration (at least five points).

JNK2 = target: T1, JNK2 (Homo sapiens, UniProt P45984); assay: KINOMEscan Kd determination, JNK2; details: duplicate, mean, N.B. = no binding at < 30 μM
T1 construct: purchased Eurofins Pharma Discovery (KINOMEscan)
Protocol: (§3) Selected compounds were submitted for dissociation constant (Kd) determination using KINOMEscan (Eurofins Pharma Discovery, San Diego, CA, USA), as described previously. […] Primary screening at fixed concentrations of compounds was performed in duplicate.

IL-6 [2] = assay: LPS-induced IL-6 production in MonoMac-6 cells (ELISA); format: cell-based; details: Homo sapiens, MONO-MAC-6; 30 min pretreatment, 250 ng/mL LPS for 24 h; read-out: MonoMac-6 Cell IL-6 IC50
Protocol: as §1
A human IL-6 ELISA kit (BD Biosciences, San Jose, CA, USA) was measure IL-6 production. MonoMac-6 cells were plated in 96-well plates at a density of 2 × 10^5 cells/well in culture medium supplemented with 3% (v/v) endotoxin-free FBS. The cells were pretreated with test compound or DMSO for 30 min, followed by addition of 250 ng/mL LPS for 24 h. IC50 values for IL-6 production were calculated by plotting percentage inhibition against the logarithm of inhibitor concentration (at least five points).

[3] = CellTiter-Glo cytotoxicity in THP-1Blue cells; format: cell-based, human; details: human, THP-1Blue cells; 24-h incubation, up to 50 μM; read-out: THP-1Blue Cell Cytotoxicity IC50
Protocol: as §1, §2

JNK1 [4] = target: T2, JNK1 (Homo sapiens, UniProt P45983); assay: KINOMEscan Kd determination, JNK1; details: duplicate, mean, N.B. = no binding at < 30 μM
T2 construct: purchased Eurofins Pharma Discovery (KINOMEscan)
Protocol: as §3

NF-κB/AP-1 = assay: LPS-induced NF-κB/AP-1 alkaline phosphatase reporter assay in THP1-Blue cells; format: cell-based; details: Homo sapiens; 30 min pretreatment, 250 ng/mL LPS for 24 h; read-out: THP-1Blue Cell NF-κB/AP-1 IC50
Protocol: as §1
Activation of AP-1/NF-κB was measured using an alkaline phosphatase reporter gene assay in THP1-Blue cells. Human monocytic THP-1 Blue cells are stably transfected with a secreted embryonic alkaline phosphatase gene that is under the control of a promoter inducible by NF-κB/AP-1. THP1-Blue cells (2 × 10^5 cells/well) were pretreated with test compound or DMSO for 30 min, followed by addition of 250 ng/mL lipopolysaccharide (LPS) for 24 h, and alkaline phosphatase activity was measured in cell supernatants using QUANTI-Blue mix (InvivoGen) as absorbance at 655 nm and compared with positive control samples (LPS). For selected compounds, the concentrations of inhibitor that caused 50% inhibition of the NF-κB reporter activity (IC50) were calculated.

phospho-c-Jun (Ser63) = assay: LPS-induced c-Jun (Ser63) phosphorylation in MonoMac-6 cells (Western blotting); format: cell-based, human; details: 30 min pretreatment, LPS 250 ng/mL 30 min
Protocol: MonoMac-6 monocytic cells were pretreated with different concentrations of the compounds under investigation for 30 min and treated with LPS (250 ng/mL) or vehicle for another 30 min. Cells were washed twice with Hanks’ balanced salt solution, and cell lysates were prepared using lysis buffer from the JNK kinase assay kit (Cell Signaling Technology, Danvers, MA). Cell lysates (from 5 × 10^6 cells) were separated on ExpressPlus 4–20% PAGE Gels (GenScript, Piscataway, NJ, USA) using TRIS-MOPS running buffer (GenScript) and transferred to nitrocellulose membranes. The blots were probed with antibodies against c-Jun, phospho-c-Jun (Ser63), and total c-Jun (Cell Signaling Technology, Danvers, MA, USA), followed by horseradish peroxidase-conjugated secondary antibody (Cell Signaling Technology). The blots were developed using SuperSignal West Femto chemiluminescent substrate (Thermo Fisher Scientific) and visualized with a FluorChem FC2 imaging system (Alpha Innotech Corporation, San Leandro, CA, USA). Quantitation of the chemiluminescent signal was performed using AlphaView software (ver. 3.0; Alpha Innotech).

JNK1-3 [5] = assay: KINOMEscan binding, statements for all three JNK isoforms; details: summary of Table 3
Protocol: as §3

JNK3 [6] = target: T3, JNK3 (Homo sapiens, UniProt P53779); assay: KINOMEscan Kd determination, JNK3; details: duplicate, mean, N.B. = no binding at < 30 μM
T3 construct: purchased Eurofins Pharma Discovery (KINOMEscan)
Protocol: as §3

IL-6 [7] = test system: IL-6; parameters: method as in PMID 22434859; details: LPS-induced; ref [35]; read-out: MonoMac-6 Cell IL-6 IC50; cited from earlier work
JNK1 [8] = target: T2, JNK1; parameters: method as in PMID 27027242, PMID 11717429, PMID 16759099, PMID 21666839; details: Figure 1; ref [25],[32],[33],[34]; cited from earlier work
JNK3 [9] = target: T3, JNK3; parameters: method as in PMID 27027242, PMID 11717429, PMID 16759099, PMID 21666839; details: Figure 1; ref [25],[32],[33],[34]; cited from earlier work
JNK1-3 [10] = test system: JNK1-3; parameters: method as in PMID 27027242, PMID 11717429, PMID 16759099, PMID 21666839; details: Figure 1; ref [25],[32],[33],[34]; cited from earlier work

T3 sequence (P53779 whole entry): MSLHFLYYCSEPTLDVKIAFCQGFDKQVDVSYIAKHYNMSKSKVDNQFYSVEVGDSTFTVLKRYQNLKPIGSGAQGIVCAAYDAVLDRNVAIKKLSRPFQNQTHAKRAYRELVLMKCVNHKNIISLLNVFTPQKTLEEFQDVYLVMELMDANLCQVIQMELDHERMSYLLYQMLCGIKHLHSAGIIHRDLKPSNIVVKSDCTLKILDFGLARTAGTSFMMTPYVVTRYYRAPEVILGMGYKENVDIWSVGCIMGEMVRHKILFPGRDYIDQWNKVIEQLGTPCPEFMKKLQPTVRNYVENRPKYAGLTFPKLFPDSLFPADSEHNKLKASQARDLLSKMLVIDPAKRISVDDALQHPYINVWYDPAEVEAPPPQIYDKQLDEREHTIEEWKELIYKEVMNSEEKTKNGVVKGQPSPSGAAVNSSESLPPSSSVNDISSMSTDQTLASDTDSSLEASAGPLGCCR
T2 sequence (P45983 whole entry): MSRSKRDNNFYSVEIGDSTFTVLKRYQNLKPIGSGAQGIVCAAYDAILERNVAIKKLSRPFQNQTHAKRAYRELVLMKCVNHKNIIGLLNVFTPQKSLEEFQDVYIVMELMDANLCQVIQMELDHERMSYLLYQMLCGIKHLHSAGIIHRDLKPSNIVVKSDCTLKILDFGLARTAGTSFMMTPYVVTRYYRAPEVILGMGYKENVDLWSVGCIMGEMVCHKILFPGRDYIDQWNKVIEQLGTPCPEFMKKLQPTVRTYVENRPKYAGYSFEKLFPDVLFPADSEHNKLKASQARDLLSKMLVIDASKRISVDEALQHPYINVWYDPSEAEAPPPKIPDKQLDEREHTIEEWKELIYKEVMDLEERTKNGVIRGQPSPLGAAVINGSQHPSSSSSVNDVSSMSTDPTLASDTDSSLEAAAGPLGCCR
T1 sequence (P45984 whole entry): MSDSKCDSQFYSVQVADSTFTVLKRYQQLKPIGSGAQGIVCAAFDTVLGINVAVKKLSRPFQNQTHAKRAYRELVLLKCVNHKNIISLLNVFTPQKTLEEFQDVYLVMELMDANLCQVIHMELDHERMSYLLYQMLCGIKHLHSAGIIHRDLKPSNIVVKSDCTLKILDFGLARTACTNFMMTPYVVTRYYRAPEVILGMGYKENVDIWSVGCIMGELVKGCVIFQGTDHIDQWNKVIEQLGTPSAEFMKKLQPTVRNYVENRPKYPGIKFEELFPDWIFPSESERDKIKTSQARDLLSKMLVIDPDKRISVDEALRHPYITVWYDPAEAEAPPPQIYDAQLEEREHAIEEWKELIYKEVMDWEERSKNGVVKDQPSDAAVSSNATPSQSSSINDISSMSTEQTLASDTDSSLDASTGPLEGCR

Water solubility (Water solubility): high water solubility
Kd (JNK2): 880 ± 100 nM
IC50 (IL-6 [2]): 800 ± 100 nM
Kd (JNK1 [4]): 1100 ± 100 nM
melting point: 210 to 211 °C
IC50 (NF-κB/AP-1): 100 ± 50 nM
Binding affinity (Kd) for all three JNK isoforms, in words (JNK1-3 [5]): relatively high binding affinity
Kd (JNK3 [6]): 910 ± 300 nM
Molecule: ON=C1c2ccccc2-c2nc3c(CN4CCOCC4)cccc3nc21 [Compound 4m, 6-(Morpholinomethyl)-11H-indeno[1,2-b]quinoxalin-11-one Oxime]
IC50 at 24 h [1]: > 50000 nM
IC50 at 24 h [3]: > 50000 nM
Effect on LPS-induced c-Jun (Ser63) phosphorylation (phospho-c-Jun (Ser63)): inhibited c-Jun phosphorylation

Molecule: ON=C1c2ccccc2-c2nc3ccccc3nc21 [IQ-1, 11H-indeno[1,2-b]quinoxalin-11-one oxime]
IC50 (IL-6 [7]): 3400 ± 800 nM

Molecule: Cc1ccc(-c2ncn(-c3ccc(Nc4nccc(-c5cccc(N6CCOCC6)c5)n4)cc3)n2)cn1 [SR-3306]
IC50 (JNK1 [8]): 159 nM
IC50 (JNK3 [9]): 67 nM

Molecule: SP600125
IC50 (JNK1-3 [10]): 40 to 90 nM

— PMC8464905, “Novel c-Jun N-Terminal Kinase (JNK) Inhibitors with an 11H-Indeno[1,2-b]quinoxalin-11-one Scaffold” (Molecules, 2021)
